# Assay results published in the supplement of paper PMC10307832.
# Tests used:
# Experiment in all cases: relative viability (nuclei count vs DMSO), 5 days (fraction); higher = more cells survive
# [1] = compound: C1=CC=C(C(=C1)C2=CC=C(C=C2)C3=CSC4=C3C(=C(C(=O)N4)C#N)O)O + N=C(N)NC(=N)NCCc1ccccc1 [Phenformin] (partner 250 µM)
# In short: (§1)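 Lung cancer cell lines in 1536-well plates got either a single drug or a fixed anchor-drug dose together with five library-drug doses (not always all listed) in √10 steps, by pin tool, on the day after seeding. Nuclei were counted after 5 days, and relative viability is the treated-to-vehicle ratio of nuclei counts. Values are medians of duplicate plates.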
# TGX 221 + Lapatinib = compound: CC1=CN2C(=O)C=C(N=C2C(=C1)C(C)NC3=CC=CC=C3)N4CCOCC4 [TGX 221] + CS(=O)(=O)CCNCc1ccc(-c2ccc3ncnc(Nc4ccc(OCc5cccc(F)c5)c(Cl)c4)c3c2)o1 [Lapatinib] (partner 2 µM)
# In short: as §1
# [2] = compound: O=C(CCCCCCNC(=O)c1cnc(N(c2ccccc2)c2ccccc2)nc1)NO [Ricolinostat] + N=C(N)NC(=N)NCCc1ccccc1 [Phenformin] (partner 250 µM)
# In short: as §1
# Ricolinostat + Olaparib = compound: O=C(CCCCCCNC(=O)c1cnc(N(c2ccccc2)c2ccccc2)nc1)NO [Ricolinostat] + O=C(c1cc(Cc2n[nH]c(=O)c3ccccc23)ccc1F)N1CCN(C(=O)C2CC2)CC1 [Olaparib] (partner 8 µM)
# In short: as §1
Cell Line,relative viability ([1]; first compound 0.08 µM),relative viability ([1]; first compound 0.253 µM),relative viability ([1]; first compound 0.8 µM),relative viability ([1]; first compound 2.53 µM),relative viability ([1]; first compound 8 µM),relative viability (TGX 221 + Lapatinib; first compound 0.08 µM),relative viability (TGX 221 + Lapatinib; first compound 0.253 µM),relative viability (TGX 221 + Lapatinib; first compound 0.8 µM),relative viability (TGX 221 + Lapatinib; first compound 2.53 µM),relative viability (TGX 221 + Lapatinib; first compound 8 µM),relative viability ([2]; first compound 0.08 µM),relative viability ([2]; first compound 0.253 µM),relative viability ([2]; first compound 0.8 µM),relative viability ([2]; first compound 2.53 µM),relative viability (Ricolinostat + Olaparib; first compound 0.08 µM),relative viability (Ricolinostat + Olaparib; first compound 0.253 µM),relative viability (Ricolinostat + Olaparib; first compound 0.8 µM),relative viability (Ricolinostat + Olaparib; first compound 2.53 µM)
NCI-H2405,0.266,0.381,0.385,0.445,0.37,0.836,1.02,0.971,1.02,0.901,0.356,0.44,0.416,0.358,0.705,0.858,0.814,0.937
NCI-H1993,0.49,0.424,0.55,0.473,0.529,0.786,0.697,0.766,0.689,0.915,,0.48,0.508,0.339,0.883,0.875,1.02,0.892
LU99A,0.765,0.838,0.769,0.891,0.896,0.957,0.865,0.939,1.01,0.913,0.738,0.705,0.716,0.597,0.281,0.255,0.206,0.175
NCI-H1355,0.396,0.487,0.445,0.422,0.396,1.07,0.964,0.859,0.95,0.852,0.412,0.451,0.427,0.439,0.647,0.723,0.707,0.688
NCI-H838,0.316,0.641,0.538,0.54,0.543,1.06,0.876,0.886,0.822,0.718,0.48,0.689,0.64,0.571,0.802,0.788,0.787,0.404
SK-MES-1,0.643,0.682,0.659,0.708,0.615,0.487,0.414,0.422,0.39,0.381,0.597,0.599,0.678,0.672,0.713,0.712,0.691,0.681
NCI-H460,0.165,0.557,0.427,0.561,0.107,0.709,0.795,0.983,0.969,0.966,0.389,0.512,0.494,0.476,0.362,0.341,0.377,0.159
HCC-78,0.608,0.872,0.64,0.609,0.568,0.702,0.699,,0.277,0.794,,0.761,0.596,0.428,,0.788,0.735,0.448
NCI-H358,0.25,0.39,0.373,0.353,0.283,0.477,0.458,0.472,0.42,0.442,0.265,0.362,0.424,0.432,0.444,0.57,0.61,0.652
